Measurements from patent US11490622B2, “Substituted heterocycles as harmful arthropod controlling agents” (SUMITOMO CHEMICAL COMPANY, LIMITED, priority 2017, dated 2022).

Assays:
[1] = tested on: tobacco cutworms (Spodoptera litura); test: Test method 3: sprayed cabbage seedling, tobacco cutworm larvae; format: in vivo; settings: 120 h, sprayed 20 mL/seedling on cabbage, second instar larvae, after 5 days, 25° C., read-out: mortality of insects
Procedure: Test compounds are made to a formulation according to a similar method to that described in the Formulation example 5, and thereto is added water containing 0.03 v/v % of Shindain (registered trademark) to prepare a diluted solution containing a prescribed concentration of the test compound.
Cabbage (Brassicae oleracea) seedling (on the developmental stage of the second to third true leaf) is planted in a cup, and the diluted solutions are sprayed into the seedling at a ratio of 20 mL/seedling. Thereafter, the stem and leaf thereof is cut out and then is installed into a cup that is covered with filter paper on the bed of the cup. Five (5) tobacco cutworms (Spodoptera litura) at the second instar larval stage are released into the cup. After 5 days, the number of the surviving insects is counted, and the mortality of insects is calculated by the following equation. Mortality (%)=(1−Number of surviving insects/5)×100
Present compound Nos: 1, 3, 4, 6 to 12, 23, 25 to 30, 32, 35 to 43, 47 to 49, 92, 93, 97, and 107

[2] = tested on: Western corn rootworms (Diabrotica virgifera virgifera); test: Test method 5: corn seedling immersed in diluted solution, Western corn rootworm larvae; format: in vivo; settings: 120 h, corn seedling immersed 30 seconds, second instar larvae, after 5 days, 25° C., read-out: mortality of insects
Procedure: Each 1 mg of the test compounds is dissolved into 50 μL of a mixed solution of polyoxyethylene sorbitan mono-cocoate and acetone (polyoxyethylene sorbitan mono-cocoate:acetone=5:95 (v/v ratio)). Thereto is added water containing 0.03% by volume of Shindain (registered trademark) to prepare a diluted solution containing a prescribed concentration of the test compound.
A young entire seedling of Corns (Zea mays) is immersed into the diluted solution for 30 seconds. Thereafter, each two grains of the seedlings are installed in a plastic petri dish ([…]), and 10 Western corn rootworms (Diabrotica virgifera virgifera) at the second instar larval stage are released into the dish. After 5 days, the number of the dead insects is counted, and the mortality of insects is calculated by the following equation. Mortality (%)={Number of dead insects/10}×100
Present compound Nos: 1, 4, 7, 9 to 13, 23, 24, 26 to 29, 32, 33, 35, 38, 39, 41, 43, 44, 47, 48, 59, 60, 62, 63, 67 to 70, 73 to 83, and 96

Work on `CCSc1c(-c2ccc(OCC(F)(F)C(F)(F)F)n(C)c2=O)nc2ccc(C(F)(F)F)cn12` [compound 1] yielded a mortality at 500 ppm [1] of no less than 80% and a mortality at 500 ppm [2] of no less than 80%.
